{"source": "PubChem BioAssay AID1963827", "about": "(Molecular Pharmacology Branch, DTP, NCI, 2024);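 further: spheroids exposed to drugs for 7 days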;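 on viability, T/C: 100% = DMSO vehicle treated spheroids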", "tested_on": "994946-033-R-J1-PDC complex spheroid viability", "assay": "Anticancer human tumor 994946-033-R-J1-PDC patient-derived melanoma cell line growth inhibition [POLQ]", "conditions": "for IC50: curve of first compound; for viability, T/C: stronger effect = lower value", "how_it_was_run": "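PDC + HUVEC + MSC complex spheroids; POLQ inhibitors ± partner drugs; top conc. at/near clinical Cmax, else 10 microM (SN-38 1 microM), half-log dilutions; 37 degrees C, 5% CO2.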", "key": {"[1]": {"conditions": "second compound 0.0316 µM, first compound 0.0316 µM"}, "[2]": {"conditions": "second compound 0.0316 µM, first compound 0.1 µM"}, "[3]": {"conditions": "second compound 0.1 µM, first compound 0.0316 µM"}, "[4]": {"conditions": "second compound 0.1 µM, first compound 0.1 µM"}, "[5]": {"conditions": "second compound 0.316 µM, first compound 0.0316 µM"}, "[6]": {"conditions": "second compound 0.316 µM, first compound 0.1 µM"}, "[7]": {"conditions": "second compound 1 µM, first compound 0.0316 µM"}, "[8]": {"conditions": "second compound 1 µM, first compound 0.1 µM"}, "[9]": {"conditions": "second compound 3.16 µM, first compound 0.0316 µM"}, "[10]": {"conditions": "second compound 3.16 µM, first compound 0.1 µM"}, "[11]": {"conditions": "second compound 10 µM, first compound 0.0316 µM"}, "[12]": {"conditions": "second compound 10 µM, first compound 0.1 µM"}}}
{"smiles": "CC1COCCN1c1cc(C2(S(C)(=N)=O)CC2)nc(-c2ccnc3[nH]ccc23)n1", "note": "(centres undefined) + Nc1ccc(C#CCN(C(=O)Cc2ncc(C(F)(F)F)cc2C(F)(F)F)c2ccc(F)cc2)nn1", "values": [{"measurement": "IC50", "setting": "second compound 0.0316 µM", "value": 2250, "unit": "nM"}, {"measurement": "IC50", "setting": "second compound 0.1 µM", "value": 5700, "unit": "nM"}, {"measurement": "IC50", "setting": "second compound 0.316 µM", "value": 2000, "unit": "nM"}, {"measurement": "IC50", "setting": "second compound 1 µM", "value": 2540, "unit": "nM"}, {"measurement": "IC50", "setting": "second compound 3.16 µM", "value": 5120, "unit": "nM"}, {"measurement": "IC50", "setting": "second compound 10 µM", "value": "> 10000", "unit": "nM"}, {"measurement": "viability, T/C", "setting": "[1]", "value": 91.6, "unit": "%"}, {"measurement": "viability, T/C", "setting": "[2]", "value": 93, "unit": "%"}, {"measurement": "viability, T/C", "setting": "second compound 0.0316 µM, first compound 0.316 µM", "value": 76.2, "unit": "%"}, {"measurement": "viability, T/C", "setting": "second compound 0.0316 µM, first compound 1 µM", "value": 74.6, "unit": "%"}, {"measurement": "viability, T/C", "setting": "second compound 0.0316 µM, first compound 3.16 µM", "value": 37.4, "unit": "%"}, {"measurement": "viability, T/C", "setting": "second compound 0.0316 µM, first compound 10 µM", "value": 42.1, "unit": "%"}, {"measurement": "viability, T/C", "setting": "[3]", "value": 127, "unit": "%"}, {"measurement": "viability, T/C", "setting": "[4]", "value": 135, "unit": "%"}, {"measurement": "viability, T/C", "setting": "second compound 0.1 µM, first compound 0.316 µM", "value": 95, "unit": "%"}, {"measurement": "viability, T/C", "setting": "second compound 0.1 µM, first compound 1 µM", "value": 72.4, "unit": "%"}, {"measurement": "viability, T/C", "setting": "second compound 0.1 µM, first compound 3.16 µM", "value": 68.5, "unit": "%"}, {"measurement": "viability, T/C", "setting": "second compound 0.1 µM, first compound 10 µM", "value": 37.9, "unit": "%"}, {"measurement": "viability, T/C", "setting": "[5]", "value": 104, "unit": "%"}, {"measurement": "viability, T/C", "setting": "[6]", "value": 86.5, "unit": "%"}, {"measurement": "viability, T/C", "setting": "second compound 0.316 µM, first compound 0.316 µM", "value": 109, "unit": "%"}, {"measurement": "viability, T/C", "setting": "second compound 0.316 µM, first compound 1 µM", "value": 59.4, "unit": "%"}, {"measurement": "viability, T/C", "setting": "second compound 0.316 µM, first compound 3.16 µM", "value": 47.9, "unit": "%"}, {"measurement": "viability, T/C", "setting": "second compound 0.316 µM, first compound 10 µM", "value": 39.5, "unit": "%"}, {"measurement": "viability, T/C", "setting": "[7]", "value": 124, "unit": "%"}, {"measurement": "viability, T/C", "setting": "[8]", "value": 127, "unit": "%"}, {"measurement": "viability, T/C", "setting": "second compound 1 µM, first compound 0.316 µM", "value": 90.3, "unit": "%"}, {"measurement": "viability, T/C", "setting": "second compound 1 µM, first compound 1 µM", "value": 63, "unit": "%"}, {"measurement": "viability, T/C", "setting": "second compound 1 µM, first compound 3.16 µM", "value": 51.3, "unit": "%"}, {"measurement": "viability, T/C", "setting": "second compound 1 µM, first compound 10 µM", "value": 40, "unit": "%"}, {"measurement": "viability, T/C", "setting": "[9]", "value": 113, "unit": "%"}, {"measurement": "viability, T/C", "setting": "[10]", "value": 110, "unit": "%"}, {"measurement": "viability, T/C", "setting": "second compound 3.16 µM, first compound 0.316 µM", "value": 113, "unit": "%"}, {"measurement": "viability, T/C", "setting": "second compound 3.16 µM, first compound 1 µM", "value": 85, "unit": "%"}, {"measurement": "viability, T/C", "setting": "second compound 3.16 µM, first compound 3.16 µM", "value": 70.3, "unit": "%"}, {"measurement": "viability, T/C", "setting": "second compound 3.16 µM, first compound 10 µM", "value": 25.3, "unit": "%"}, {"measurement": "viability, T/C", "setting": "[11]", "value": 127, "unit": "%"}, {"measurement": "viability, T/C", "setting": "[12]", "value": 102, "unit": "%"}, {"measurement": "viability, T/C", "setting": "second compound 10 µM, first compound 0.316 µM", "value": 108, "unit": "%"}, {"measurement": "viability, T/C", "setting": "second compound 10 µM, first compound 1 µM", "value": 71.2, "unit": "%"}, {"measurement": "viability, T/C", "setting": "second compound 10 µM, first compound 3.16 µM", "value": 67.6, "unit": "%"}, {"measurement": "viability, T/C", "setting": "second compound 10 µM, first compound 10 µM", "value": 49.9, "unit": "%"}]}
{"smiles": "CC[C@@]1(O)C(=O)OCc2c1cc1n(c2=O)Cc2cc3c(CN(C)C)c(O)ccc3nc2-1", "note": "+ Nc1ccc(C#CCN(C(=O)Cc2ncc(C(F)(F)F)cc2C(F)(F)F)c2ccc(F)cc2)nn1", "values": [{"measurement": "IC50", "setting": "second compound 0.0316 µM", "value": 26.5, "unit": "nM"}, {"measurement": "IC50", "setting": "second compound 0.1 µM", "value": 29.4, "unit": "nM"}, {"measurement": "IC50", "setting": "second compound 0.316 µM", "value": 21.4, "unit": "nM"}, {"measurement": "IC50", "setting": "second compound 1 µM", "value": 22.5, "unit": "nM"}, {"measurement": "IC50", "setting": "second compound 3.16 µM", "value": 21.5, "unit": "nM"}, {"measurement": "IC50", "setting": "second compound 10 µM", "value": 30.3, "unit": "nM"}, {"measurement": "viability, T/C", "setting": "second compound 0.0316 µM, first compound 0.000316 µM", "value": 95.3, "unit": "%"}, {"measurement": "viability, T/C", "setting": "second compound 0.0316 µM, first compound 0.001 µM", "value": 94.5, "unit": "%"}, {"measurement": "viability, T/C", "setting": "second compound 0.0316 µM, first compound 0.00316 µM", "value": 99.9, "unit": "%"}, {"measurement": "viability, T/C", "setting": "second compound 0.0316 µM, first compound 0.01 µM", "value": 79, "unit": "%"}, {"measurement": "viability, T/C", "setting": "[1]", "value": 45, "unit": "%"}, {"measurement": "viability, T/C", "setting": "[2]", "value": 9.6, "unit": "%"}, {"measurement": "viability, T/C", "setting": "second compound 0.1 µM, first compound 0.000316 µM", "value": 91.7, "unit": "%"}, {"measurement": "viability, T/C", "setting": "second compound 0.1 µM, first compound 0.001 µM", "value": 113, "unit": "%"}, {"measurement": "viability, T/C", "setting": "second compound 0.1 µM, first compound 0.00316 µM", "value": 78.2, "unit": "%"}, {"measurement": "viability, T/C", "setting": "second compound 0.1 µM, first compound 0.01 µM", "value": 98.9, "unit": "%"}, {"measurement": "viability, T/C", "setting": "[3]", "value": 46.9, "unit": "%"}, {"measurement": "viability, T/C", "setting": "[4]", "value": 15.4, "unit": "%"}, {"measurement": "viability, T/C", "setting": "second compound 0.316 µM, first compound 0.000316 µM", "value": 101, "unit": "%"}, {"measurement": "viability, T/C", "setting": "second compound 0.316 µM, first compound 0.001 µM", "value": 109, "unit": "%"}, {"measurement": "viability, T/C", "setting": "second compound 0.316 µM, first compound 0.00316 µM", "value": 89.9, "unit": "%"}, {"measurement": "viability, T/C", "setting": "second compound 0.316 µM, first compound 0.01 µM", "value": 79.5, "unit": "%"}, {"measurement": "viability, T/C", "setting": "[5]", "value": 34.6, "unit": "%"}, {"measurement": "viability, T/C", "setting": "[6]", "value": 17.1, "unit": "%"}, {"measurement": "viability, T/C", "setting": "second compound 1 µM, first compound 0.000316 µM", "value": 130, "unit": "%"}, {"measurement": "viability, T/C", "setting": "second compound 1 µM, first compound 0.001 µM", "value": 90.3, "unit": "%"}, {"measurement": "viability, T/C", "setting": "second compound 1 µM, first compound 0.00316 µM", "value": 106, "unit": "%"}, {"measurement": "viability, T/C", "setting": "second compound 1 µM, first compound 0.01 µM", "value": 87.8, "unit": "%"}, {"measurement": "viability, T/C", "setting": "[7]", "value": 33.7, "unit": "%"}, {"measurement": "viability, T/C", "setting": "[8]", "value": 11.7, "unit": "%"}, {"measurement": "viability, T/C", "setting": "second compound 3.16 µM, first compound 0.000316 µM", "value": 92, "unit": "%"}, {"measurement": "viability, T/C", "setting": "second compound 3.16 µM, first compound 0.001 µM", "value": 119, "unit": "%"}, {"measurement": "viability, T/C", "setting": "second compound 3.16 µM, first compound 0.00316 µM", "value": 96.8, "unit": "%"}, {"measurement": "viability, T/C", "setting": "second compound 3.16 µM, first compound 0.01 µM", "value": 86.8, "unit": "%"}, {"measurement": "viability, T/C", "setting": "[9]", "value": 31.4, "unit": "%"}, {"measurement": "viability, T/C", "setting": "[10]", "value": 13.7, "unit": "%"}, {"measurement": "viability, T/C", "setting": "second compound 10 µM, first compound 0.000316 µM", "value": 100, "unit": "%"}, {"measurement": "viability, T/C", "setting": "second compound 10 µM, first compound 0.001 µM", "value": 113, "unit": "%"}, {"measurement": "viability, T/C", "setting": "second compound 10 µM, first compound 0.00316 µM", "value": 98.5, "unit": "%"}, {"measurement": "viability, T/C", "setting": "second compound 10 µM, first compound 0.01 µM", "value": 110, "unit": "%"}, {"measurement": "viability, T/C", "setting": "[11]", "value": 47.7, "unit": "%"}, {"measurement": "viability, T/C", "setting": "[12]", "value": 14.4, "unit": "%"}]}
